Measured values from patent publication US20260041094A1, “Compositions Comprising an Antimicrobial Boosting Agent” (Symrise AG, priority 2022, published 2026).

Legend:
Assay in all cases: Minimum Inhibitory Concentration (MIC) test, growth inhibition in 96 well plates via optical density
Assay type in all cases: cell-based
Aspergillus brasiliensis = details: lowest concentration with complete growth inhibition, A. brasiliensis; for MIC: Aspergillus brasiliensis, read-out: MIC in ppm Aspergillus brasiliensis
Experimental: (§1) The Minimum Inhibitory Concentration (MIC) test is a test on growth inhibition. The estimation of MICs is executed in 96 well plates. Through the comparison of bacterial growth with positive and negative controls via optical density (OD), different concentrations of given test substances are evaluated.
(§2) Bacteria were cultivated under adjusted conditions based on information of the German Collection of Microorganisms and Cell Cultures (DSMZ) and stored in 10% or 50% glycerol prior to use. Afterwards, the following method was applied: Growth medium (according to microorganism) was added to each well of the microplate. Then, test-substances solved in DMSO, and strain specific benchmarks were added. Additionally, […] (water controls only with medium) and solvent controls (DMSO controls only with medium) were performed. Finally, the microorganisms were added in a concentration of 1 to 6×10^6 CFU/ml (CFU=colony forming units). The incubation of the microplates was carried out at appropriate conditions.
(§3) According to the resulting growth, substance concentrations are labelled either as inhibiting or not and MIC is defined as the lowest concentration where a complete growth inhibition is visible. Experiments at concentration limits (highest concentration labelled as growth and lowest concentration labelled as inhibiting) are performed at least twice.
(§4) Tested concentrations were adjusted to performance of test substance, but in general: 5,000 ppm steps between 50,000 ppm and 10,000 ppm, and 2500 ppm steps below 10,000 ppm, finishing with 1000 ppm. To enhance resolution of the approach, additional intermediate steps were included in individual cases. […] For ethylhexylglycerin and 1,2-pentanediol, pure substance without DMSO was tested.
(§5) To verify that the tested combinations act synergistically against microorganisms, corresponding experiments were conducted with Staphylococcus aureus, Candida albicans, Aspergillus brasiliensis, Pseudomonas aeruginosa and Escherichia coli. The synergistic activities of MAA-1 and different antimicrobial compounds in a mixture of 50% and 50% were determined by measuring the MIC of the mixture.
(§6) In order to calculate the synergy index with MIC values, the Kull equation was used as follows:
(§7) [formula] • wherein • SI is the Synergy Index according to Kull • MICA is the MIC value for Substance A • MICB is the MIC value for Substance B • MICmixture is the MIC value for the mixture of substances A and B • PA is the proportion of the substance A in the mixture • PB is the proportion of the substance B in the mixture
(§8) A Synergy Index (SI) with a value lower than 1 indicates a synergistic effect of the mixture that has been tested. Values higher than 1 indicate the absence of a synergistic effect.
(§9) For mixtures for which no MIC value has been determined, the calculation of an SI is not applicable (marked as n.a. in the following tables).

Candida albicans = details: lowest concentration with complete growth inhibition, C. albicans; for MIC: Candida albicans, read-out: MIC in ppm Candida albicans
Experimental: as §1, §2, §3, §4, §5, §6, §7, §8, §9

Escherichia coli = details: lowest concentration with complete growth inhibition, E. coli; for MIC: Escherichia coli, read-out: MIC in ppm Escherichia coli
Experimental: as §1, §2, §3, §4, §5, §6, §7, §8, §9

Pseudomonas aeruginosa = details: lowest concentration with complete growth inhibition, P. aeruginosa; for MIC: Pseudomonas aeruginosa, read-out: MIC in ppm Pseudomonas aeruginosa
Experimental: as §1, §2, §3, §4, §5, §6, §7, §8, §9

Staphylococcus aureus = details: lowest concentration with complete growth inhibition, S. aureus; for MIC: Staphylococcus aureus, read-out: MIC in ppm Staphylococcus aureus
Experimental: as §1, §2, §3, §4, §5, §6, §7, §8, §9

Row | Compound | MIC in ppm Aspergillus brasiliensis (Aspergillus brasiliensis) | MIC in ppm Candida albicans (Candida albicans) | MIC in ppm Escherichia coli (Escherichia coli) | MIC in ppm Pseudomonas aeruginosa (Pseudomonas aeruginosa) | MIC in ppm Staphylococcus aureus (Staphylococcus aureus) | MIC (Aspergillus brasiliensis) [mg/mL] | MIC (Candida albicans) [mg/mL] | MIC (Escherichia coli) [mg/mL] | MIC (Pseudomonas aeruginosa) [mg/mL] | MIC (Staphylococcus aureus) [mg/mL]
1 | CCCCC(CC)COCC(O)CO (stereo not drawn) [Ethylhexylglycerin] | 1,000 ppm | 1,000 ppm | 2,500 ppm | 50,000 ppm | 1,000 ppm |  |  |  |  | 
2 | CCCC(O)CO (stereo not drawn) [1,2-Pentanediol] |  |  |  |  |  | 17.5 | 12.5 | 15 | 30 | 35
3 | CC(=O)c1ccc(O)cc1 [4-Hydroxy-acetophenone, 4-Hydroxyacetophenone] | 2,500 ppm | 6,000 ppm | 2,500 ppm | 4,000 ppm | 5,000 ppm |  |  |  |  | 

The next lines start with the values.

Row | MIC in ppm Aspergillus brasiliensis (Aspergillus brasiliensis) | MIC in ppm Candida albicans (Candida albicans) | MIC in ppm Escherichia coli (Escherichia coli) | MIC in ppm Pseudomonas aeruginosa (Pseudomonas aeruginosa) | MIC in ppm Staphylococcus aureus (Staphylococcus aureus) | MIC (Aspergillus brasiliensis) [mg/mL] | MIC (Candida albicans) [mg/mL] | MIC (Escherichia coli) [mg/mL] | MIC (Pseudomonas aeruginosa) [mg/mL] | MIC (Staphylococcus aureus) [mg/mL] | Compound
4 |  |  |  |  |  | > 30 | > 25 | 15 | > 30 | > 25 | CC1(C)CC(NCC(=O)O)=C/C(=N/c2ccccc2)C1 [MAA-20, 2-[(5,5-dimethyl-3-phenylimino-cyclohexen-1-yl)amino]acetic acid]
5 |  |  |  |  |  | > 30 | 25 | > 25 | > 30 | 25 | COc1ccc(/N=C2\CC(C)(C)CC3=C2SCC(C(=O)O)N3)cc1OC (stereo not drawn) [MAA-13, 8-((3,4-dimethoyxphenyl)imino)-6,6-dimethyl-3,4,5,6,7,8-hexahydro-2-H-benzol[b][1,4]thiazine-3-carboxylic acid]
6 |  |  |  |  |  | 20 | 7.5 | 2.5 | > 25 | 2.5 | CCOC(=O)CNC1=C/C(=N/c2ccccc2)CC(C)(C)C1 [MAA-1]
